This note sets out measurements from patent publication US11168073B2, “3,3-difluoroallylamines or salts thereof and pharmaceutical compositions comprising the same” (YUHAN CORPORATION, priority 2018, dated 2021).

Common to all, as to type: biochemical
Assay [1] has as its target T1, recombinant human MAO-B (monoamine oxidase-B) (Homo sapiens, UniProt P27338).
T1 construct: purchased Sigma-Aldrich
T1 sequence (P27338 1-520): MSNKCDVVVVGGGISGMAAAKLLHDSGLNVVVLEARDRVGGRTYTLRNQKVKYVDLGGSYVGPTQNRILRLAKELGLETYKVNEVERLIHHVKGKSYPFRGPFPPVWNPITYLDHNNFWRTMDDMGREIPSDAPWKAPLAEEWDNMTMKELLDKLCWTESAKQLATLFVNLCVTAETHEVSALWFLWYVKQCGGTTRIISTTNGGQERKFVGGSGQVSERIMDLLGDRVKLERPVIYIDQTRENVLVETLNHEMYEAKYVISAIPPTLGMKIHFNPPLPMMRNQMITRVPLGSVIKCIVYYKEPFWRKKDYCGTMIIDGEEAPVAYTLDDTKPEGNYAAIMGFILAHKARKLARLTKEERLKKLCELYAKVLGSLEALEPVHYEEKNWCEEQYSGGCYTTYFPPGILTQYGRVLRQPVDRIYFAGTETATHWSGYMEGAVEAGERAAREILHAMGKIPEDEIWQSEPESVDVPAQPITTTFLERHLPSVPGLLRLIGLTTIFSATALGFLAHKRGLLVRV
Description: Activity evaluation on recombinant human MAO-B (Amplex Red/HRP-coupled assay, 1 mM benzylamine substrate). To be noted: read-out: Inhibitory Activity (IC50, nM) MAO-B. A digest of the protocol:
(§1)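 Compounds preincubated 30 min at 37 °C with enzyme in 50 mM sodium phosphate pH 7.4 (final DMSO <1%, 8-point 1:3 dilutions); reaction started with 200 uM Amplex Red, 1 U/mL HRP and substrate (MAO-A 0.5 mM tyramine, MAO-B 1 mM benzylamine, DAO 1 mM putrescine). Resorufin fluorescence (ex 544/em 590 nm) followed over 1-2 h; IC50 from four-parameter logistic fit.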

Assay [2] has as its target T2, recombinant human MAO-A (monoamine oxidase-A) (Homo sapiens, UniProt P21397).
T2 construct: purchased Sigma-Aldrich
T2 sequence (P21397 1-527): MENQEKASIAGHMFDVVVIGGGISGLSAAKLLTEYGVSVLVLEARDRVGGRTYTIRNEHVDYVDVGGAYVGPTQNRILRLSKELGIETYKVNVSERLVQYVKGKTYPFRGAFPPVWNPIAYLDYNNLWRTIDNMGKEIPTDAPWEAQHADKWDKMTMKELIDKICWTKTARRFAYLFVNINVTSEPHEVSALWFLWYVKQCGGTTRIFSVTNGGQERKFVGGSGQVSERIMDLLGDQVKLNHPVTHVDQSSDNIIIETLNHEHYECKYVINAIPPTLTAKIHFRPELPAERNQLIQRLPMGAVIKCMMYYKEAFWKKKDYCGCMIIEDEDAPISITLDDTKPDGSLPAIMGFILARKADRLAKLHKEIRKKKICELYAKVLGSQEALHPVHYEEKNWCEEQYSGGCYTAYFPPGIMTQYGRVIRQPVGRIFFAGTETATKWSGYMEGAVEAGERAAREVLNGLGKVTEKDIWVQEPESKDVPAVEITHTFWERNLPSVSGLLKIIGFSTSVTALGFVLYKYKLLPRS
Description: Activity evaluation on recombinant human MAO-A (Amplex Red/HRP-coupled assay, 0.5 mM tyramine substrate). To be noted: read-out: Inhibitory Activity (IC50, nM) MAO-A. The method in brief: as §1

In another assay the target is T3, recombinant human VAP-1 (Homo sapiens, UniProt Q16853).
T3 construct: purchased R&D systems
T3 sequence (Q16853 1-763): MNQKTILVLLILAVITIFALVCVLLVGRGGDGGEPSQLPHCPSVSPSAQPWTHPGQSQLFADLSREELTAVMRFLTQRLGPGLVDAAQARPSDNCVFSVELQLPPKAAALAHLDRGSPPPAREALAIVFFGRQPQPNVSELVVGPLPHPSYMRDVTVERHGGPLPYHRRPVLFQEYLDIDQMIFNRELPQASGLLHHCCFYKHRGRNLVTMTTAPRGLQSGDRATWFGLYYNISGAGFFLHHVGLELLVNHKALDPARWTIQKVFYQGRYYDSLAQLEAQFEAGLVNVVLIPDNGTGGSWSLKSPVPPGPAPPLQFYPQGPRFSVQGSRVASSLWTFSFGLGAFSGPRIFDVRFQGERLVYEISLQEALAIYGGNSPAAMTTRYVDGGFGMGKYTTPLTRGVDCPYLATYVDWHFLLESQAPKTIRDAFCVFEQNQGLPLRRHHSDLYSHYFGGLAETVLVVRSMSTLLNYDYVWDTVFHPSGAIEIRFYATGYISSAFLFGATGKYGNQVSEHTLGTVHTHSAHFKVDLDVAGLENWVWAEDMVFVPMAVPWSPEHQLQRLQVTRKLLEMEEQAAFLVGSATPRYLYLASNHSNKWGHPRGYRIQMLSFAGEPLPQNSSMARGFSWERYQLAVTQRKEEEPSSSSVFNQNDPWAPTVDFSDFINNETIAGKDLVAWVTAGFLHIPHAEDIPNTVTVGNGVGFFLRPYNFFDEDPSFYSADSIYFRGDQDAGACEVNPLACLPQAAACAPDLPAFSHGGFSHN
Description: Activity evaluation on recombinant human VAP-1 (Amplex Red/HRP-coupled hydrogen peroxide assay, benzylamine substrate). To be noted: read-out: Inhibitory Activity (IC50, nM) human VAP-1. The method in brief: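 Recombinant human VAP-1 in 50 mM sodium phosphate pH 7.4 preincubated 30 min at 37 °C with compound (8-point 1:3 series, <1% DMSO), then 1 mM benzylamine, 200 uM Amplex Red, 1 U/mL HRP added. H2O2-derived resorufin fluorescence (ex 544/em 590) followed 1–2 h; IC50 from four-parameter fit of rate inhibition.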

The target in assay [3] is T4, recombinant human DAO (diamine oxidase) (Homo sapiens, UniProt P19801).
T4 construct: purchased R&D systems
T4 sequence (P19801 20-751): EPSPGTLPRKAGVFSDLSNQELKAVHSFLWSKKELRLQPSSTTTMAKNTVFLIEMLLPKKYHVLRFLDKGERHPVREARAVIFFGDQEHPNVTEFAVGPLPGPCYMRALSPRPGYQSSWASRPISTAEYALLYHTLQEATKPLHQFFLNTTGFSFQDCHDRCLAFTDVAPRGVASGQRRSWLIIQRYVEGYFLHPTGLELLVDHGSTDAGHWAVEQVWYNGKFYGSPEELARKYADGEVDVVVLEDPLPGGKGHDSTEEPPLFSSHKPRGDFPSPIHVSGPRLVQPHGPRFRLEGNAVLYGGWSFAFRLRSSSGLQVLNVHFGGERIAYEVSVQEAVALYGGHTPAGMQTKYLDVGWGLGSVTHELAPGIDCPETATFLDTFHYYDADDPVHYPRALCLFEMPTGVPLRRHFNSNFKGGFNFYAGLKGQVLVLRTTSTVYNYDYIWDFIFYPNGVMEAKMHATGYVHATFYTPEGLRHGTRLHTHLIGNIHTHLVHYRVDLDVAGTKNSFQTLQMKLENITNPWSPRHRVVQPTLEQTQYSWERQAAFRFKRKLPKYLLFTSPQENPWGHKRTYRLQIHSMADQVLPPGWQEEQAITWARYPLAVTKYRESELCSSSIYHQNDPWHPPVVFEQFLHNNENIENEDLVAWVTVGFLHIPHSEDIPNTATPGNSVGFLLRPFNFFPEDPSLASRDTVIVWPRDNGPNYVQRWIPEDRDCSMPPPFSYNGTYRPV
Description: Activity evaluation on recombinant human DAO (Amplex Red/HRP-coupled assay, 1 mM putrescine substrate). To be noted: read-out: Inhibitory Activity (IC50, nM) DAO. The method in brief: as §1

The mark [4] stands for this setting: recombinant human VAP-1, benzylamine substrate.
The mark [5] stands for this setting: recombinant human VAP-1, 30 min preincubation at 37° C., 1 mM benzylamine.

In general, IC50 refers to the midpoint of a concentration-inhibition curve.

Counter-ions that a name gives are not always drawn. Like-named read-outs stand apart in the source and are kept apart here.

Consider `NCC(Cn1ncn(-c2cccc(-c3ccc4c(c3)NC(=O)OC4)n2)c1=O)=C(F)F` [Example 219, 7-[6-[1-[2-(aminomethyl)-3,3-difluoro-allyl]-5-oxo-1,2,4-triazol-4-yl]-2-pyridyl]-1,4-dihydro-3,1-benzoxazin-2-one Trifluoroacetate], for which the IC50 in assay [1] (1 mM benzylamine substrate) was 68500 nM; in assay [2] (0.5 mM tyramine substrate), > 100000 nM; at recombinant human VAP-1 (setting [4]) it was 0.2 nM; in assay [3] (1 mM putrescine substrate), 47 nM.
For `NCC(Cn1ncn(-c2cc(-c3ccc(N4CCNCC4)cc3)ccn2)c1=O)=C(F)F` [Example 55, 2-[2-(aminomethyl)-3,3-difluoro-allyl]-4-[4-(4-piperazin-1-ylphenyl)-2-pyridyl]-1,2,4-triazol-3-one Ditrifluoroacetate], the IC50 was > 100000 nM in assay [1] (1 mM benzylamine), > 100000 nM in assay [2] (0.5 mM tyramine), 6.6 nM on recombinant human VAP-1 (setting [5]) and 620 nM in assay [3] (1 mM putrescine).
On to `NCC(Cn1ncn(-c2cccc(Br)c2)c1=O)=C(F)F` [Example 2, 2-[2-(aminomethyl)-3,3-difluoro-allyl]-4-(3-bromophenyl)-1,2,4-triazol-3-one Trifluoroacetate], for which the IC50 in assay [1] (1 mM benzylamine) was > 100000 nM; in assay [2] (0.5 mM tyramine), > 100000 nM; on recombinant human VAP-1 (setting [5]), 6.2 nM; in assay [3] (1 mM putrescine) it was 46000 nM.
As for `Cc1c(-c2cnn(C(F)F)c2)cccc1-n1cnn(CC(CN)=C(F)F)c1=O` [Example 261, 2-[2-(aminomethyl)-3,3-difluoro-allyl]-4-[3-[1-(difluoromethyl)pyrazol-4-yl]-2-methyl-phenyl]-1,2,4-triazol-3-one Trifluoroacetate], the 50% inhibitory concentration (IC50) is > 100000 nM in assay [1] (1 mM benzylamine substrate), > 100000 nM in assay [2] (0.5 mM tyramine substrate), 6.5 nM at recombinant human VAP-1 (setting [4]) and > 100000 nM in assay [3] (1 mM putrescine substrate).
Regarding `CN1C(=O)CCc2cc(-c3csc(Cn4cnn(CC(CN)=C(F)F)c4=O)c3)ccc21` [Example 152, 6-[5-[[1-[2-(aminomethyl)-3,3-difluoro-allyl]-5-oxo-1,2,4-triazol-4-yl]methyl]-3-thienyl]-1-methyl-3,4-dihydroquinolin-2-one Trifluoroacetate], the IC50 was 13400 nM in assay [1] (1 mM benzylamine), > 100000 nM in assay [2] (0.5 mM tyramine), 0.2 nM on recombinant human VAP-1 (setting [5]) and 3500 nM in assay [3] (1 mM putrescine).
Turning to `NCC(Cn1ncn(Cc2ccc(-c3cnn(CC4CC4)c3)s2)c1=O)=C(F)F` [Example 295, 2-[2-(aminomethyl)-3,3-difluoro-allyl]-4-[[5-[1-(cyclopropylmethyl)pyrazol-4-yl]-2-thienyl]methyl]-1,2,4-triazol-3-one Trifluoroacetate], the IC50 is > 100000 nM in assay [1] (1 mM benzylamine substrate), > 100000 nM in assay [2] (0.5 mM tyramine substrate), 0.3 nM at recombinant human VAP-1 (setting [4]) and > 100000 nM in assay [3] (1 mM putrescine substrate).
On to `NCC(Cn1ncn(Cc2ccc(-c3ccc4c(c3)NC(=O)OC4)s2)c1=O)=C(F)F` [Example 142, 7-[5-[[1-[2-(aminomethyl)-3,3-difluoro-allyl]-5-oxo-1,2,4-triazol-4-yl]methyl]-2-thienyl]-1,4-dihydro-3,1-benzoxazin-2-one Trifluoroacetate], for which the concentration for half-maximal inhibition (IC50) in assay [1] (1 mM benzylamine) was 32000 nM; in assay [2] (0.5 mM tyramine), > 100000 nM; on recombinant human VAP-1 (setting [5]), 0.2 nM; in assay [3] (1 mM putrescine), 16000 nM.
For the compound `NCC(Cn1ncn(Cc2ccc(-c3cnn(S(=O)(=O)C4CC4)c3)s2)c1=O)=C(F)F` [Example 294, 2-[2-(aminomethyl)-3,3-difluoro-allyl]-4-[[5-(1-cyclopropylsulfonylpyrazol-4-yl)-2-thienyl]methyl]-1,2,4-triazol-3-one Trifluoroacetate], the IC50 is > 100000 nM in assay [1] (1 mM benzylamine substrate), > 100000 nM in assay [2] (0.5 mM tyramine substrate), 2.9 nM at recombinant human VAP-1 (setting [4]) and 5380 nM in assay [3] (1 mM putrescine substrate).
`NCC(Cn1ncn(Cc2cc(-c3cnn(C(F)F)c3)cs2)c1=O)=C(F)F` [Example 194, 2-[2-(aminomethyl)-3,3-difluoro-allyl]-4-[[4-[1-(difluoromethyl)pyrazol-4-yl]-2-thienyl]methyl]-1,2,4-triazol-3-one Trifluoroacetate]: the IC50 is 9200 nM in assay [1] (1 mM benzylamine substrate), > 100000 nM in assay [2] (0.5 mM tyramine substrate), 2.9 nM at recombinant human VAP-1 (setting [4]) and 64000 nM in assay [3] (1 mM putrescine substrate).
As for `CC(C)n1cc(-c2ccc(Cn3cnn(CC(CN)=C(F)F)c3=O)s2)ccc1=O` [Example 123, 5-[5-[[1-[2-(aminomethyl)-3,3-difluoro-allyl]-5-oxo-1,2,4-triazol-4-yl]methyl]-2-thienyl]-1-isopropyl-pyridin-2-one Trifluoroacetate], the IC50 was 56000 nM in assay [1] (1 mM benzylamine), > 100000 nM in assay [2] (0.5 mM tyramine), 0.9 nM at recombinant human VAP-1 (setting [5]) and 59000 nM in assay [3] (1 mM putrescine).
As for `Cc1cc(-c2ccc(CCn3cnn(CC(CN)=C(F)F)c3=O)s2)cc2c1NC(=O)CC2` [Example 178, 6-[5-[2-[1-[2-(aminomethyl)-3,3-difluoro-allyl]-5-oxo-1,2,4-triazol-4-yl]ethyl]-2-thienyl]-8-methyl-3,4-dihydro-1H-quinolin-2-one Trifluoroacetate], the IC50 in assay [1] (1 mM benzylamine) was > 100000 nM; in assay [2] (0.5 mM tyramine) it was > 100000 nM; at recombinant human VAP-1 (setting [5]), 0.6 nM; in assay [3] (1 mM putrescine), 350 nM.
